According to patent US10653732B2, “Composition for stimulating insulin secretion from cells and use thereof” (KOREA INSTITUTE OF SCIENCE AND TECHNOLOGY, priority 2017, dated 2020):
Entries after “also recorded” stand apart in the source; their conditions may differ.

How the values were obtained:
[1] = test system: INS-1 cells; assay: Protecting effect on pancreatic toxicity (streptozotocin-treated INS-1 cells, CCK-8); details: for Cell viability (%): rat, 24 h
Experimental: The cell line INS-1 (Biohermes, Shanghai, China) was used to evaluate a protecting effect on pancreatic toxicity as follows.
INS-1 cells were cultured in RPMI1640 medium (Cellgro, Manassas, USA) supplemented with 10% fetal bovine serum (FBS), 100 unit/mL of penicillin G, 100 μg/mL of streptomycin, 10 mM Hepes, 2 mM L-glutamine, 1 mM sodium pyruvate, and 0.05 mM 2-merchapto ethanol in an incubator maintained at 37° C. and 95% air/5% carbon dioxide. Among the above-mentioned ingredients, the reagents of which manufacturers were not mentioned were purchased from Gibco BRL, Life Technologies.
The cultured INS-1 cells were dispensed at a density of 1×10^4 per well in 100 μL of the same medium in a 96-well plate, and cultured for 24 hours under the same conditions to stabilize the cells. […] Then, 10 μL (final concentration of 50 μM) of 500 μM streptozotocin in the same medium was added and cultured for 24 hours. Then, 10 μL of CCK-8 (Dojindo Laboratories, Japan) reagent was added to each well, and cultured at 37° C. 1 hour later, absorbance at 450 nm was measured by using a BIO-TEK (Winooski, Vt., USA) microplate reader to measure cell viability. The predetermined concentrations are as follows: concentrations of the extract and the fractions were 0 μg/mL, 5 μg/mL, 10 μg/mL, 25 μg/mL, 50 μg/mL, and 100 μg/mL. The concentration of the single compound was 0 μM, 5 μM, 10 μM, 25 μM, 50 μM, and 100 μM.

[2] = test system: INS-1 cells; assay: Measurement of cytotoxicity against INS-1 cells (CCK-8 cell viability); type: cell-based, rat; details: for Cell viability (%): 24 hours, INS-1; for cytotoxicity / toxicity in words: INS-1 cells, concentrations of Table 1
Experimental: A cell line INS-1 (Biohermes, Shanghai, China) is a rat insulinoma, and has ability to secrete insulin.
The concentration of the single compound was 1.0 μM, 2.5 μM, and 5.0 μM.
In Table 1, cell viability was calculated by the following equation:
Cell viability (%)=NB×100, wherein A represents absorbance of a non-sample added group and B represents absorbance of a sample-added group.

[3] = test system: INS-1 cells; assay: Effect on insulin secretion of INS-1 cells (stimulation index, rat insulin RIA); type: cell-based; details: for Stimulation index (SI): 16.7 mM / […] glucose; for insulin secretion of INS-1 cells in words: concentrations of Table 2
Experimental: Thereafter, the cells were washed twice with 2 ml of Krebs-Ringer buffer which was prepared by mixing 114 mM sodium chloride (NaCl), 4.4 mM potassium chloride (KCl), 1 mM magnesium sulfate (MgSO4), 1.28 mM calcium chloride (CaCl2), 29.5 mM sodium bicarbonate (NaHCO3), 10 mM Hepes (Gibco BRL Life Technologies), and 0.1% bovine serum albumin (BSA) and adjusting a hydrogen ion concentration at pH 7.4.
The concentration of the single compound was 1 μM, 2.5 μM, and 5 μM.
0.2 mL of Krebs-Ringer buffer containing […] glucose was added to each well, and incubated for 1 hour. Thereafter, centrifugation was performed at 4° C. for 10 minutes at 12,000 rpm, and a supernatant was taken and quantity of insulin was measured by using a Rat insulin RIA kit (Gentaur Molecular Products, Belgium). Stimulation index (SI) was calculated by dividing a value measured at a high concentration of glucose, i.e., quantity of insulin secreted by stimulation of 16.7 mM glucose by a value measured at a low concentration of glucose, i.e., quantity of insulin secreted by stimulation of 3.3 mM glucose. As a positive control group, gliclazide was used at a concentration of 2.5 μM, 5.0 μM, 10 μM, or 20 μM.

[4] = test system: INS-1 cells; assay: Image-based cell analysis of apoptosis (Annexin V/PI) in streptozotocin-treated INS-1 cells; design: species or system rat; details: 50 μM streptozotocin; for green fluorescent (apoptotic) cells, microscopic image FIG. 8A: 10 μM or more; for Apoptosis (%): 10 μM, 24 hours, annexin V-positive cells; for apoptosis by streptozotocin in words, FIG. 8B: INS-1 cells
Experimental: Thereafter, hypoxylonol-C and BNT at a concentration of 10 μM were added to 2.7 mL of the same medium and further cultured for 2 hours. […] Then, cells were collected by using trypsin, and washed with PBS once. The cells were suspended in 100 μL of Annexin binding buffer (composition: 100 mM HEPES, 140 mM NaCl, 25 mM CaCl2, pH 7.4) at a density of 5×10^5 to 5×10^6 cells/mL, and then mixed with 5 μL of Annexin V Alexa Fluor 488, and fixed and stained at room temperature for 20 minutes in the dark room. The cell suspension was centrifuged to discard the supernatant. Precipitated cell pellets were re-suspended in 100 μL of Annexin binding buffer. 1 μL of propidium was added to the cell suspension and mixed well to fix and stain the cells at room temperature for 1 minute to 5 minutes in the dark room. Analysis of the stained cells was performed by using a Tali Image-based cytometer and TaliPCApp (version 1.0).
Cells were sorted into living cells (annexin V-negative/PI-negative), early apoptotic cells (annexin V-positive/PI-negative), and late apoptotic cells or necrotic cells (annexin V-positive/PI-positive), and total apoptotic cells was expressed as a percentage of annexin V-positive/PI-negative or positive cells.

[5] = Fukai et al., J. Nat. Prod. 2014, 77, 1065-1068; cited from earlier work
[6] = 1.0 (μg/mL; μM for single compound)
[7] = 2.5 (μg/mL; μM for single compound)
[8] = 5.0 (μg/mL; μM for single compound)
[9] = 1.0 (head μg/ml; b127 μM for single compound)
[10] = 2.5 (head μg/ml; b127, b128 μM for single compound and gliclazide)
[11] = 5.0 (head μg/ml; b127, b128 μM for single compound and gliclazide)

CN(N=O)C(=O)N[C@H]1C(O)O[C@H](CO)[C@@H](O)[C@@H]1O (mixture of isomers) [streptozotocin, reference compound]
number of INS-1 cells as compared with non-treated group ([1]; 50 μM streptozotocin, 24 hours): ≤ 50%

Oc1cccc2c(-c3ccc(O)c4c(O)cccc34)ccc(O)c12 [BNT, 1,1′-binaphthalene-4,4′,5,5′-tetrol]
Cell viability (%) [2, 6]: 100.3 ± 3.6% | Cell viability (%) [2, 7]: 100.1 ± 2.1% | Cell viability (%) [2, 8]: 106.6 ± 2.9% | cytotoxicity / toxicity in words [2]: no cytotoxicity; also recorded: no toxicity | Stimulation index (SI) [3, 9]: 6.7 ± 0.0 | Stimulation index (SI) [3, 10]: 7.4 ± 0.0 | Stimulation index (SI) [3, 11]: 6.8 ± 0.2 | insulin secretion of INS-1 cells in words [3]: concentration-dependent manner | cell viability reduced by streptozotocin, effect in words ([1]; 50 μM streptozotocin): significantly increased cell viability | Cell viability (%) ([1]; 5 µM): 73.5 ± 3.0% | Cell viability (%) ([1]; 10 µM): 76.8 ± 4.5% | Cell viability (%) ([1]; 25 µM): 78.4 ± 1.5% | Cell viability (%) ([1]; 50 µM): 81.5 ± 3.3% | green fluorescent (apoptotic) cells, microscopic image FIG. 8A [4]: apoptotic cells were decreased | Apoptosis (%) [4]: 19.3 ± 0.5% | apoptosis by streptozotocin in words, FIG. 8B [4]: remarkably reduced apoptosis

O=C1CC2C(=C3c4c2ccc(O)c4[C@@H](O)C[C@@H]3O)c2cccc(O)c21 (stereo partly shown) [Hypoxylonol-C]
Cell viability (%) [2, 6]: 97.4 ± 1.7% | Cell viability (%) [2, 7]: 96.4 ± 1.4% | Cell viability (%) [2, 8]: 97.3 ± 3.0% | cytotoxicity / toxicity in words [2]: no cytotoxicity; also recorded: no toxicity | Stimulation index (SI) [3, 9]: 6.3 ± 0.3 | Stimulation index (SI) [3, 10]: 5.3 ± 0.1 | Stimulation index (SI) [3, 11]: 6.1 ± 0.1 | insulin secretion of INS-1 cells in words [3]: concentration-dependent manner | cell viability reduced by streptozotocin, effect in words ([1]; 50 μM streptozotocin): significantly increased cell viability | Cell viability (%) ([1]; 5 µM): 66.0 ± 0.9% | Cell viability (%) ([1]; 10 µM): 75.6 ± 2.5% | Cell viability (%) ([1]; 25 µM): 80.7 ± 1.5% | Cell viability (%) ([1]; 50 µM): 85.7 ± 1.7% | green fluorescent (apoptotic) cells, microscopic image FIG. 8A [4]: apoptotic cells were decreased | Apoptosis (%) [4]: 21.6 ± 1.5% | apoptosis by streptozotocin in words, FIG. 8B [4]: remarkably reduced apoptosis | antiangiogenic effect [5]: has an antiangiogenic effect

O=C1CC2C(=C3c4c2ccc(O)c4[C@H](O)C[C@@H]3O)c2cccc(O)c21 (stereo partly shown) [Hypoxylonol-F]
Cell viability (%) [2, 6]: 96.2 ± 4.5% | Cell viability (%) [2, 7]: 97.3 ± 4.6% | Cell viability (%) [2, 8]: 96.1 ± 0.9% | cytotoxicity / toxicity in words [2]: no cytotoxicity; also recorded: no toxicity | Stimulation index (SI) [3, 9]: 7.1 ± 0.4 | Stimulation index (SI) [3, 10]: 7.7 ± 0.3 | Stimulation index (SI) [3, 11]: 10.6 ± 0.3 | insulin secretion of INS-1 cells in words [3]: concentration-dependent manner | cell viability reduced by streptozotocin, effect in words ([1]; 50 μM streptozotocin): significantly increased cell viability | Cell viability (%) ([1]; 5 µM): 70.1 ± 1.7% | Cell viability (%) ([1]; 10 µM): 68.3 ± 3.2% | Cell viability (%) ([1]; 25 µM): 70.0 ± 4.3% | Cell viability (%) ([1]; 50 µM): 69.8 ± 3.8% | Cell viability (%) ([1]; 100 µM): 71.6 ± 0.9%

Cc1ccc(S(=O)(=O)NC(=O)NN2CC3CCCC3C2)cc1 (stereo not shown) [gliclazide, reference compound]
Stimulation index (SI) [3, 10]: 6.1 ± 0.0 | Stimulation index (SI) [3, 11]: 5.7 ± 0.0 | Stimulation index (SI) ([3]; 10.0 (head μg/ml; b128 μM for gliclazide)): 6.1 ± 0.1 | Stimulation index (SI) ([3]; 20.0 (head μg/ml; b128 μM for gliclazide)): 9.3 ± 0.0
